Results taken from PMC9486541, “Design, synthesis and cytotoxic evaluation of novel betulonic acid-diazine derivatives as potential antitumor agents” (Frontiers in Chemistry, 2022).

Experiments:
MCF-7 cells [1] = experiment: DAPI staining of nuclear changes, MCF-7; type: cell-based, human; details: MCF-7 cells, 2, 4, 8 μM, 72 h
Procedure: Morphological observation of nuclear changes was performed by DAPI staining in this assay. MCF-7 cells in the logarithmic growth phase were seeded in 12-well plates at a density of 5 × 10^3 cells/well and were allowed to grow for 24 h. Then the cells were treated with different concentration ranges of BoA2C (0, 2, 4 8 μM) for 72 h. After the treatment period, cells were washed with PBS and fixed with 4% paraformaldehyde for 10 min. Then the liquid was discarded, and the cells were stained with DAPI (1 mg/ml, Molecular Probes/Invitrogen Life Technologies, Carlsbad, CA, United States) for 1 min in dark. After staining, cells were visualized under a fluorescence microscope (Olympus IX71, Tokyo, Japan).

MCF-7 cells [2] = experiment: Wound healing assay; type: cell-based, human; details: 8 μM, 0, 24, 48 h, compared to control group
Procedure: MCF-7 cells were seeded in six-well plates at a density of […] and incubated at 37°C to achieve 100 percent confluence. After starving the cells for 24 h, a wound (cell-free) was drawn across the center of the well using the tip of a 1 ml plastic pipette. Wells were cleaned twice with PBS before being treated for 48 h with BoA2C (8 μM). At 0 h, 24 h, and 48 h, cells were viewed and photographed in randomly selected fields using an inverted light microscope (Nikon).

MDCK cells = experiment: DAPI staining of nuclear changes, MDCK; type: cell-based, canine; details: MDCK cells, 2, 4, 8 μM
MCF-7 cells [3] = experiment: Cellular metabolomics study (LC-MS); type: cell-based, human; details: MCF-7, BoA2C (2 μM) 72 h, BoA2C and Control groups
Procedure: To eliminate excess medium, cells were washed twice with 1 ml of PBS solution. The wells were then filled with 2 ml of ACN: MeOH: H2O 50:30:20 (v/v) and placed in the freezer for 20 min. The extracts obtained in an Eppendorf tube after the cells were scraped and vortexed. The mixture was then centrifuged for 10 min at 10,000 rpm and 4°C, and the supernatant was collected and dried with an evaporator. 300 μl MeOH was used for reconstitution. 15 μL of the reconstituted extract was mixed with 15 μl H2O and […] ACN for the metabolomics analysis of the intracellular material. After centrifugation (10 min, 4°C, 11,800 g), the supernatant was transferred to an LC-MS vial for analysis.
An Acquity UPLC HSS T3 column (1.8 μm 100 × 2.1 mm) using an UltiMate 3000 high performance LC system coupled to Q Exactive MS was used for metabolic profiling ([Shu et al., 2020]). At a flow rate of 0.3 ml/min, mobile phase A (water containing 0.1% acid) and mobile phase B (methanol) were used. A was reduced from 80 % to 70% from 0 to 2 min, A was reduced to 55% from 2 to 5 min, A was reduced to 40% from 5 to 6.5 min, A was reduced to 35% from 6.5 to 12 min, A was last reduced to 0 from 12 to 18 min. The gradient of the mobile phase was as follows: The column oven temperature was set to 40°C, and the autosampler temperature was set to 4°C. The injection volume was 1 μl. MS used electron spray ionization to operate in both positive and negative ionization modes (ESI). To assess the stability and repeatability of the LC-MS-based metabolomics method, quality control (QC) samples were used. Each QC sample was made by combining five samples of the same volume (100 μL) in the order of analysis. To ensure the system method’s stable operation, all combined QC samples for running all QC samples made by every five samples before analysis. After five samples were tested during the analysis run, the combined QC samples of the five samples were taken.
Mass spectrometry data of metabolites in MCF-7 cells was used for metabolomics investigation after co-cultivation with BoA2C (2 μM) for 72 h. The effectiveness of the OPLS-DA model to distinguish between the BoA2C and Control groups was assessed using the success criterion of R^2 ≥ 0.7 and Q^2 ≥ 0.4 ([Martin-Blazquez et al., 2019]). […] VIP-plots were investigated using the OPLS-DA models to examine important factors that led to the differentiation of the metabolome between the BoA2C and Control groups. Variables having a VIP value greater than 1 were deemed significant contenders. Matching retention time and MS fragmentation patterns from the MetaboAnalyst (version 5.0) database verified the presence of distinct metabolites ([Pang et al., 2021]). These metabolites were further categorized based on their characteristics, including amino acids, amines, aliphatic acids and bile acids. All differential metabolites were loaded into MetaboAnalyst (version 5.0) for metabolic analysis to further explain the fundamental mechanisms of BoA2C’s cytotoxic impact on breast carcinoma cells. In accordance with the described guidelines, the Homo sapiens pathway library and Fisher’s exact test were used for route enrichment analysis, while relative-betweeness centrality was used for pathway topology analysis ([Pang et al., 2021]). The impacted metabolic pathways were defined as those with a pathway effect value more than 0.10 and a p value less than 0.05. […] Six of them (Figure 7B, Table 3) were primarily involved: 1) arginine and proline metabolism 2) linoleate metabolism 3) bile acid biosynthesis 4) de novo fatty acid biosynthesis 5) fatty acid activation, and (VI) fatty Acid Metabolism.

[4] = Arginine and Proline Metabolism
[5] = De novo fatty acid biosynthesis

Compound: C=C(C)[C@@H]1CC[C@]2(C(=O)OCCOC(=O)c3cnc(C)cn3)CC[C@]3(C)[C@H](CC[C@@H]4[C@@]5(C)CCC(=O)C(C)(C)[C@@H]5CC[C@]43C)[C@@H]12 [BoA2C, (5-Methylpyrazin-2-acyloxy)-ethyl-3-oxolup-20(29)-en-28-oate]
- nuclear morphological changes (DAPI staining) (MCF-7 cells [1]): nuclear morphological changes typical of apoptosis in a dose-dependent manner
- migration of cells in the scratch wound (MCF-7 cells [2]): obviously reduced the migration of MCF-7 cells
- nuclear damage (DAPI staining) (MDCK cells): did not show a significant nuclear damage
- fold change of 4-Acetamidobutanoic acid (M4) (MCF-7 cells [3]; [4]): 2.37
- fold change of 5′-Methylthioadenosine (M10) (MCF-7 cells [3]; [4]): 28.55
- fold change of L-4-Hydroxyglutamate semialdehyde (M6) (MCF-7 cells [3]; [4]): 1.99
- fold change of L-Arginine (M14) (MCF-7 cells [3]; [4]): 1.90
- fold change of L-Glutamic acid (M18) (MCF-7 cells [3]; [4]): 1.94
- fold change of L-Glutamine (M7) (MCF-7 cells [3]; [4]): 2.33
- fold change of L-Methionine (M12) (MCF-7 cells [3]; [4]): 3.63
- fold change of L-Proline (M5) (MCF-7 cells [3]; [4]): 2.40
- fold change of 3,7-Dihydroxycoprostanic Acid (M21) (MCF-7 cells [3]; Bile acid biosynthesis): 1027.39
- fold change of 3a,7a-Dihydroxy-5b-cholestan-26-al (M13) (MCF-7 cells [3]; Bile acid biosynthesis): 241.46
- fold change of 3 alpha,7 alpha,26-Trihydroxy-5beta-cholestane (M3) (MCF-7 cells [3]; Bile acid biosynthesis): 362.98
- fold change of 7a,12a-Dihydroxy-cholestene-3-one (M16) (MCF-7 cells [3]; Bile acid biosynthesis): 17.04
- fold change of 7a-Hydroxy-5b-cholestan-3-one (M25) (MCF-7 cells [3]; Bile acid biosynthesis): 9.40
- fold change of 7a-Hydroxy-cholestene-3-one (M28) (MCF-7 cells [3]; Bile acid biosynthesis): 4.47
- fold change of 7alpha-Hydroxycholesterol (M17) (MCF-7 cells [3]; Bile acid biosynthesis): 92.35
- fold change of 27-Deoxy-5b-cyprinol (M24) (MCF-7 cells [3]; Bile acid biosynthesis): 2.03
- fold change of Cholesterol (M1) (MCF-7 cells [3]; Bile acid biosynthesis): 7.69
- fold change of Cholic acid (M2) (MCF-7 cells [3]; Bile acid biosynthesis): 2.55
- fold change of Lithocholic acid (M27) (MCF-7 cells [3]; Bile acid biosynthesis): 108.49
- fold change of Palmitic acid (M11) (MCF-7 cells [3]; [5]): 23.17
- fold change of alpha-Linolenic acid (M26) (MCF-7 cells [3]; [5]): 2.19
- fold change of 2-trans-dodecenoyl-CoA (M22) (MCF-7 cells [3]; Fatty Acid Metabolism): 1.93
- fold change of 3-Oxotetradecanoyl-CoA (M15) (MCF-7 cells [3]; Fatty Acid Metabolism): 1.77
- fold change of 13-HODE (M23) (MCF-7 cells [3]; Linoleate metabolism): 108.54
- fold change of 13-Hpode (M9) (MCF-7 cells [3]; Linoleate metabolism): 23.04
- fold change of Ascorbic Acid (M19) (MCF-7 cells [3]; Linoleate metabolism): 2.88
- fold change of Linoleic acid (M20) (MCF-7 cells [3]; Linoleate metabolism): 159.58
- fold change of LysoPC(P-18:0/0:0) (M8) (MCF-7 cells [3]; Linoleate metabolism): 3.29
- melting point: 139 to 141 °C
